Columns and labels:
[1] = test system: Mus musculus; assay: Average weight of the mouse after treating with 40 mg/kg dose for 1 day.; type: functional; design: unit not given here
[2] = test system: L1210; assay: In vivo antitumor activity against L1210 leukemia in 5 mice measured as median survival range at 20 mg/kg; Value ranges from (11-15); type: functional, Mus musculus
[3] = test system: L1210; assay: In vivo antitumor activity against L1210 leukemia in 5 mice measured as median survival range at 40 mg/kg; Value ranges from (12-20); type: functional, Mus musculus
[4] = test system: Mus musculus; assay: Average weight of the mouse after treating with 20 mg/kg dose for 1 day.; type: functional; design: unit not given here
[5] = test system: Mus musculus; assay: Average weight change in mouse after treating with 20 mg/kg dose for 7 days.; type: functional; design: unit not given beside the values
[6] = test system: L1210; assay: In vivo antitumor activity against L1210 leukemia in 5 mice measured as Increased life span at 20 mg/kg.; type: functional; settings: Mus musculus
[7] = test system: L1210; assay: In vivo antitumor activity against L1210 leukemia in 5 mice measured as Increased life span at 40 mg/kg.; type: functional; settings: Mus musculus
[8] = test system: L1210; assay: In vivo antitumor activity against L1210 leukemia in 14 mice measured as T/C values; T/C = 14/9; type: functional, Mus musculus
[9] = test system: Mus musculus; assay: Average weight change in mouse after treating with 40 mg/kg dose for 7 days.; type: functional
[10] = test system: L1210; assay: In vivo antitumor activity against L1210 leukemia in 13 mice measured as T/C values; T/C = 13/9; type: functional, Mus musculus
[11] = test system: Mus musculus; assay: (§1) Average weight of the mouse after treating with 20 mg/kg dose for 7 days.; type: functional
[12] = test system: Mus musculus; assay: Average weight of the mouse after treating with 10 mg/kg dose for 7 days.; type: functional
[13] = test system: L1210; assay: In vivo antitumor activity against L1210 leukemia in 15 mice measured as T/C values; T/C = 15/9; type: functional, Mus musculus
[14] = test system: L1210; assay: In vivo antitumor activity against L1210 leukemia in 5 mice measured as Increased life span at 10 mg/kg.; type: functional; settings: Mus musculus
[15] = test system: L1210; assay: In vivo antitumor activity against L1210 leukemia in 5 mice measured as median survival range at 20 mg/kg; Value ranges from(17-25); type: functional, Mus musculus
[16] = test system: Mus musculus; assay: Average weight of the mouse after treating with 10 mg/kg dose for 1 day.; type: functional; design: unit not given here
[17] = test system: L1210; assay: In vivo antitumor activity against L1210 leukemia in 24 mice measured as T/C value; T/C = 24/9; type: functional, Mus musculus
[18] = test system: L1210; assay: In vivo antitumor activity against L1210 leukemia in 5 mice measured as median survival range at 10 mg/kg; Value ranges from(15-21); type: functional, Mus musculus
[19] = test system: Mus musculus; assay: as §1; type: functional; design: unit not given beside the values
[20] = test system: L1210; assay: In vivo antitumor activity against L1210 leukemia in 5 mice measured as median survival range at 40 mg/kg; Value ranges from(22-27); type: functional, Mus musculus
[21] = test system: L1210; assay: In vivo antitumor activity against L1210 leukemia in 5 mice measured as median survival range at 20 mg/kg; Value ranges from(13-22); type: functional, Mus musculus
[22] = test system: L1210; assay: In vivo antitumor activity against L1210 leukemia in 5 mice measured as median survival range at 10 mg/kg; Value ranges from(13-20); type: functional, Mus musculus
[23] = test system: L1210; assay: In vivo antitumor activity against L1210 leukemia in 18 mice measured as T/C values; T/C = 18/9; type: functional, Mus musculus
[24] = test system: Mus musculus; assay: Average weight of the mouse after treating with 40 mg/kg dose for 7 days.; type: functional; design: unit not given beside the values
[25] = test system: L1210; assay: In vivo antitumor activity against L1210 leukemia in 17 mice measured as T/C values; T/C = 17/9; type: functional, Mus musculus
[26] = test system: L1210; assay: In vivo anti tumor activity against L1210 leukemia in 5 mice measured as Increased life span at 10 mg/kg.; type: functional; settings: Mus musculus
[27] = test system: Mus musculus; assay: Average weight change in mouse after treating with 10 mg/kg dose for 7 days.; type: functional
[28] = test system: L1210; assay: In vivo antitumor activity against L1210 leukemia in 12 mice measured as T/C values; T/C = 12/9; type: functional, Mus musculus
[29] = test system: L1210; assay: In vivo antitumor activity against L1210 leukemia in 14 mice measured as T/C values(days); T/C = 14/9; type: functional, Mus musculus
[30] = test system: L1210; assay: In vivo antitumor activity against L1210 leukemia in 5 mice measured as median survival range at 20 mg/kg; Value ranges from (12-16); type: functional, Mus musculus
[31] = test system: L1210; assay: In vivo antitumor activity against L1210 leukemia in 5 mice measured as median survival range at 10 mg/kg; Value ranges from (11-13); type: functional, Mus musculus
[32] = test system: L1210; assay: In vivo antitumor activity against L1210 leukemia in 5 mice measured as T/C values(days); T/C = 17/9; type: functional, Mus musculus
[33] = test system: L1210; assay: In vivo antitumor activity against L1210 leukemia in 5 mice measured as median survival range at 40 mg/kg; Value ranges from (11-21); type: functional, Mus musculus

SMILES	Average weight [1]	Average weight [4]	Weight change [5]	ILS at 20 mg/kg [6]	ILS at 40 mg/kg [7]	Weight change [9]	Weight change [12]	Average weight [16]	T/C [17]	ILS at 10 mg/kg [26]	other results
CCOCCOC(=O)CCC(NC(=O)c1ccc(N(C)Cc2cnc3nc(N)nc(N)c3n2)cc1)C(=O)OCCOCC (stereo not given)	23.1	22.6	1.5	44%	55%	0.5					Range [2]: 15; Range [3]: 20; T/C [8]: 9; T/C [10]: 9
CN(Cc1cnc2nc(N)nc(N)c2n1)c1ccc(C(=O)NC(CCC(=O)OCc2c(Cl)cccc2Cl)C(=O)OCc2c(Cl)cccc2Cl)cc1 (stereo not given)		22.4		167%			1.4	21.6	9		Weight change [11]: 0.8; T/C [13]: 9; ILS at 10 mg/kg [14]: 66%; Range [15]: 25; Range [18]: 21
CN(Cc1cnc2nc(N)nc(N)c2n1)c1ccc(C(=O)NC(CCC(=O)OCc2cc3c(cc2Cl)OCO3)C(=O)OCc2cc3c(cc2Cl)OCO3)cc1 (stereo not given)	21.4	22.2		100%	167%		2.1	22.5	9	88%	Weight change [19]: 1; Range [20]: 27; Range [21]: 22; Range [22]: 20; T/C [23]: 9; Weight change [24]: 0.2; T/C [25]: 11
CC(C)CCOC(=O)CCC(NC(=O)c1ccc(N(C)Cc2cnc3nc(N)nc(N)c3n2)cc1)C(=O)OCCC(C)C (stereo not given)	23.2	23.7	1.9	33%	88%	1		21.9		33%	Weight change [27]: 3; T/C [28]: 12; T/C [29]: 14; Range [30]: 16; Range [31]: 13; T/C [32]: 17; Range [33]: 21

Source: ChEMBL document CHEMBL1122370 (J Med Chem, 1983)
